Common to all, as to experiment: In vitro assay of antibacterial activity (agar dilution MIC)
What all share (format): cell-based
For orientation: In agar dilution the substance is mixed into plates at graded concentrations.

One test relates to CANDIDA ALBICANS CCH 442. As to conditions: BHI agar, 35-37 °C for 20 to 24 hours, unit assumed. Here is the method:
(§1) Representative compounds of the present invention were assayed in vitro for antibacterial activity as follows: Twelve petri dishes containing successive aqueous dilutions of the test compound mixed with 10 mL of sterilized Brain Heart Infusion (BHI) agar (Difco 0418-01-5) were prepared. Each plate was inoculated with 1:100 (or 1:10 for slow-growing strains, such as Micrococcus and Streptococcus) dilutions of up to 32 different microorganisms, using a Steers replicator block. The inoculated plates were incubated at 35-37 °C for 20 to 24 hours. In addition, a control plate, using BHI agar containing no test compound, was prepared and incubated at the beginning and end of each test.
(§2) An additional plate containing a compound having known susceptibility patterns for the organisms being tested and belonging to the same antibiotic class as the test compound was also prepared and incubated as a further control, as well as to provide test-to-test comparability. Erythromycin A was used for this purpose.
(§3) After incubation, each plate was visually inspected. The minimum inhibitory concentration (MIC) was defined as the lowest concentration of drug yielding no growth, a slight haze, or sparsely isolated colonies on the inoculum spot as compared to the growth control.

Test [1] relates to STAPHYLOCOCCUS AUREUS A5177. As to conditions: BHI agar, 35-37 °C for 20 to 24 hours, unit assumed. Here is the method:
as §1, §2, §3

For test [2], the system named is STAPHYLOCOCCUS AUREUS CMX 553. As to conditions: BHI agar, 35-37 °C for 20 to 24 hours, unit assumed. Here is the method:
as §1, §2, §3

The test system of test [3] is STAPHYLOCOCCUS AUREUS NCTC10649M. As to conditions: BHI agar, 35-37 °C for 20 to 24 hours, unit assumed. Here is the method:
as §1, §2, §3

Test [4] deals with STAPHYLOCOCCUS AUREUS A-5278. As to conditions: BHI agar, 35-37 °C for 20 to 24 hours, unit assumed. As for the experimental part:
as §1, §2, §3

The test system of test [5] is STREPTOCOCCUS PYOGENES 930. The following applies: STREPTOCOCCUS PYOGENES 930; BHI agar, 35-37 °C for 20 to 24 hours; unit assumed. As for the experimental part: as §1, §2, §3
Test [6] has as its system STREPTOCOCCUS PYOGENES EES61. The following applies: STREPTOCOCCUS PYOGENES EES61; BHI agar, 35-37 °C for 20 to 24 hours; unit assumed. As for the experimental part: as §1, §2, §3
Another test relates to M[…] ATCC 9341. The following applies: MICROCOCCUS LUTEUS ATCC 9341; BHI agar, 35-37 °C for 20 to 24 hours; unit assumed. Here is the method:
as §1, §2, §3

The subject of another test is EN[…] ATCC 8043. The following applies: ENTEROCOCCUS FAECIUM ATCC 8043; BHI agar, 35-37 °C for 20 to 24 hours; unit assumed. Here is the method:
as §1, §2, §3

The subject of the next test is N. ASTEROIDES ATCC 9970. The following applies: BHI agar, 35-37 °C for 20 to 24 hours, unit assumed. As for the experimental part: as §1, §2, §3
For another test, the system named is M[…] ATCC 4698. The following applies: MICROCOCCUS LUTEUS ATCC 4698; BHI agar, 35-37 °C for 20 to 24 hours; unit assumed. Here is the method: as §1, §2, §3
The test system of another test is ESCHERICHIA COLI SS. The following applies: ESCHERICHIA COLI SS; BHI agar, 35-37 °C for 20 to 24 hours; unit assumed. As for the experimental part:
as §1, §2, §3

For test [7], the system named is STAPHYLOCOCCUS AUREUS CMX 642A. As to conditions: BHI agar, 35-37 °C for 20 to 24 hours, unit assumed. As for the experimental part: as §1, §2, §3
The subject of a further test is ESCHERICHIA COLI DC-2. As to conditions: BHI agar, 35-37 °C for 20 to 24 hours, unit assumed. Here is the method: as §1, §2, §3
Test [8] has as its system MYCOBACTERIUM SMEGMATIS ATCC 114. The following applies: MYCOBACTERIUM SMEGMATIS ATCC 114; BHI agar, 35-37 °C for 20 to 24 hours; unit assumed. As for the experimental part: as §1, §2, §3
Test [9] relates to STAPHYLOCOCCUS EPIDERMIDIS 3519. The following applies: STAPHYLOCOCCUS EPIDERMIDIS 3519; BHI agar, 35-37 °C for 20 to 24 hours; unit assumed. Here is the method:
as §1, §2, §3

In test [10] the test system is STAPHYLOCOCCUS AUREUS ATCC 6538P. As to conditions: BHI agar, 35-37 °C for 20 to 24 hours, unit assumed. As for the experimental part: as §1, §2, §3
The test system of test [11] is STREPTOCOCCUS BOVIS A-5169. The following applies: STREPTOCOCCUS BOVIS A-5169; BHI agar, 35-37 °C for 20 to 24 hours; unit assumed. Here is the method:
as §1, §2, §3

In test [12] the test system is STAPHYLOCOCCUS AUREUS 1775. The following applies: BHI agar, 35-37 °C for 20 to 24 hours, unit assumed. Here is the method:
as §1, §2, §3

For test [13], the system named is STREPTOCOCCUS PYOGENES PIU 2548. The following applies: STREPTOCOCCUS PYOGENES PIU 2548; BHI agar, 35-37 °C for 20 to 24 hours; unit assumed. Here is the method:
as §1, §2, §3

A further test has as its system STR[…] 508. As to conditions: STREPTOCOCCUS AGALACTIAE CMX 508; BHI agar, 35-37 °C for 20 to 24 hours; unit assumed. As for the experimental part:
as §1, §2, §3

The subject of the next test is ESCHERICHIA COLI JUHL. As to conditions: ESCHERICHIA COLI JUHL; BHI agar, 35-37 °C for 20 to 24 hours; unit assumed. Here is the method:
as §1, §2, §3

Consider three molecules from patent EP0984975B1, “MULTICYCLIC ERYTHROMYCIN DERIVATIVES” (Abbott Laboratories, priority 1997, dated 1998).

In the case of `CC[C@H]1OC(=O)[C@H](C)C(=O)[C@H](C)[C@@H](O[C@@H]2O[C@H](C)C[C@H](N(C)C)[C@H]2O)[C@](C)(OC)C[C@@H](C)C2Nc3ccccc3N3C(=O)O[C@@]1(C)[C@H]3[C@H]2C` (single isomer, unassigned) [Ex 3, Compound of Formula (I): R^1 is methoxy; R^2 is H, R^3 is H, the double bond is absent, A, B, D and E are H, and Y and Z taken together with the atom to which they are attached form an oxo group], the Antibacterial Activity (MIC's) in the test with CANDIDA ALBICANS CCH 442 was over 100 µg/mL; in test [1] it was 25 µg/mL; in test [2] it was 50 µg/mL; in test [3], 50 µg/mL; in [4] it was over 100 µg/mL; in test [5], over 100 µg/mL. In addition, the Antibacterial Activity (MIC's) amounted to 3.1 µg/mL in test [6]; 3.1 µg/mL with M[…] ATCC 9341; 12.5 µg/mL in the test with EN[…] ATCC 8043; 6.2 µg/mL in the test on N. ASTEROIDES ATCC 9970; 25 µg/mL with M[…] ATCC 4698; 100 µg/mL with ESCHERICHIA COLI SS. Also, the Antibacterial Activity (MIC's) is 50 µg/mL in [7]; over 100 µg/mL with ESCHERICHIA COLI DC-2; 50 µg/mL in test [8]; 50 µg/mL in [9]; 25 µg/mL in test [10]; 1.56 µg/mL in test [11]. The Antibacterial Activity (MIC's) in test [12] is over 100 µg/mL; in [13] it was 25 µg/mL; in the test on STR[…] 508, 3.1 µg/mL; in the test with ESCHERICHIA COLI JUHL, over 100 µg/mL.

For `CC[C@H]1OC(=O)[C@H](C)C(=O)[C@H](C)[C@@H](O[C@@H]2O[C@H](C)C[C@H](N(C)C)[C@H]2O)[C@](C)(OC)C[C@@H](C)C2=Nc3cc(C)ccc3N3C(=O)O[C@@]1(C)[C@H]3[C@H]2C` [Ex 4, Compound of Formula (I): R^1 is methoxy; R^2 is H, R^3 is absent, the double bond is present, A, B, and E are H, D is methyl, and Y and Z taken together with the atom to which they are attached form an oxo group], the Antibacterial Activity (MIC's) in the test on CANDIDA ALBICANS CCH 442 is over 100 µg/mL; in [1], 0.78 µg/mL; in test [3], 0.78 µg/mL; in test [4], over 100 µg/mL; in test [5], over 100 µg/mL; in test [6], 0.01 µg/mL. The Antibacterial Activity (MIC's) in the test with M[…] ATCC 9341 is 0.1 µg/mL; in the test on N. ASTEROIDES ATCC 9970 it was 0.1 µg/mL; in the test with M[…] ATCC 4698, 0.2 µg/mL; in the test with ESCHERICHIA COLI SS it was 0.2 µg/mL; in test [7], 0.78 µg/mL; with ESCHERICHIA COLI DC-2, over 100 µg/mL. The Antibacterial Activity (MIC's) is 100 µg/mL in test [8]; 0.78 µg/mL in test [10]; 0.01 µg/mL in [11]; 0.2 µg/mL in test [13]; 0.01 µg/mL in the test on STR[…] 508; over 100 µg/mL in the test with ESCHERICHIA COLI JUHL.

In the case of `CC[C@H]1OC(=O)[C@H](C)C(=O)[C@H](C)[C@@H](O[C@@H]2O[C@H](C)C[C@H](N(C)C)[C@H]2O)[C@](C)(OC)C[C@@H](C)C2=Nc3cc(C#N)ccc3N3C(=O)O[C@@]1(C)[C@H]3[C@H]2C` [Ex 6, Compound of Formula (I): R^1 is methoxy; R^2 is H, R^3 is absent, the double bond is present, A, B, and E are H, D is cyano and Y and Z taken together with the atom to which they are attached form an oxo group], the Antibacterial Activity (MIC's) in the test on CANDIDA ALBICANS CCH 442 was over 100 µg/mL; in test [2] it was 0.39 µg/mL; in [3], 0.39 µg/mL; in test [4], over 100 µg/mL; in test [5], over 100 µg/mL; in test [6] it was 0.01 µg/mL. Further, the Antibacterial Activity (MIC's) turned out to be 0.05 µg/mL with M[…] ATCC 9341; 0.05 µg/mL in the test with EN[…] ATCC 8043; 0.39 µg/mL in the test with N. ASTEROIDES ATCC 9970; 0.39 µg/mL in the test on M[…] ATCC 4698; 3.1 µg/mL in the test with ESCHERICHIA COLI SS; 0.39 µg/mL in test [7]. Also, the Antibacterial Activity (MIC's) with ESCHERICHIA COLI DC-2 is over 100 µg/mL; in test [8], 0.1 µg/mL; in [9], 0.2 µg/mL; in [10], 0.39 µg/mL; in [11] it was 0.01 µg/mL; in test [12], over 100 µg/mL. The Antibacterial Activity (MIC's) in [13] was 0.39 µg/mL; in the test on STR[…] 508, 0.05 µg/mL; with ESCHERICHIA COLI JUHL, over 100 µg/mL.
